Reference: patent publication US20220289732A1, “HETEROCYCLIC WDR5 INHIBITORS AS ANTI-CANCER COMPOUNDS” (NOVARTIS AG, priority 2019, published 2022)

Legend:
WDR5 = WDR5 (Homo sapiens, UniProt P61964); assay: WDR5 HTRF binding assay; conditions: read-out: (a) WDR5 HTRF Pep Val v.1[Inhibitor/IC50]Qualified AC50
Outline: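 In this HTRF displacement format, biotinylated MLL1 WIN peptide (3762-3773, 20 nM) binds WDR5 (6 nM) in 25 mM Hepes pH 7.5 with 100 mM NaCl, 2 mM DTT and 0.1% BSA for 20 min at rt. Detection used streptavidin-APC/anti-His-Eu for 1 hr. IC50 came from dose-response fits of normalized signal; 15 nM biotin-PEG-His peptide served as counter assay.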

MV4-11 cells = assay: MV4-11 6-day cell growth CTG (CellTiter-Glo) assay; assay type: cell-based; conditions: Homo sapiens, MV4-11, 144 h, 6 days, read-out: (c) MLL/WDR5 cell proliferation assay//MLL/WDR5 proliferation MV4:11 Qualified AC50
Outline: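 IC50 comes from a dose-response fit of % inhibition relative to DMSO controls, with viable cells measured by CellTiter-Glo luminescence. Compounds were tested over 12 points (1:3, starting at 50 μM final) on MV4-11 cells plated at 300/well and grown 6 days.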

[1] = molecular target: wild type MLL1 four-member complex (MLL1-4C) (Homo sapiens, UniProt P61964); assay: MLL1 LC-MS assay (SAH production); assay type: biochemical; conditions: read-out: (b) MLL LCMS Peptide Val.v.1 Qualified AC50
Outline: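 SAH formation, measured by LC-MS/MS after a TFA quench containing d4-SAH, was normalised to no-compound and no-enzyme controls and fitted to a dose-response curve for IC50. Reactions ran 120 min at rt (pH 8.0 Tris buffer) with final 30 nM MLL1 four-member complex, 2.5 μM SAM and 10 μM biotinylated H3[1-21] peptide, after a 20-min enzyme/SAM-compound preincubation.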

CCOc1cc([C@H](C)N2CCc3c(cc(CCN(C)CC)cc3-c3cc4ocnc4nc3C)C2=O)ncc1C#N [Example 181, (S)-4-ethoxy-6-(1-(7-(2-(ethyl(methyl)amino)ethyl)-5-(5-methyloxazolo[4,5-b]pyridin-6-yl)-1-oxo-3,4-dihydroisoquinolin-2(1H)-yl)ethyl)nicotinonitrile]
IC50 (WDR5): < 10 nM
AC50 (MV4-11 cells): 10 to 1000 nM
AC50 [1]: 10 to 1000 nM

CCOc1cc([C@H](C)N2CCc3c(cc(CCN(C)CC)cc3-c3cn(C)c(=O)cc3C(F)(F)F)C2=O)ncc1C#N [Example 182, (S)-4-ethoxy-6-(1-(7-(2-(ethyl(methyl)amino)ethyl)-5-(1-methyl-6-oxo-4-(trifluoromethyl)-1,6-dihydropyridin-3-yl)-1-oxo-3,4-dihydroisoquinolin-2(1H)-yl)ethyl)nicotinonitrile]
IC50 (WDR5): < 10 nM
AC50 (MV4-11 cells): 10 to 1000 nM
AC50 [1]: 10 to 1000 nM

CCOc1cc([C@H](C)N2CCc3c(cc(CCN(C)CC)cc3-c3cc(N)ncc3Cl)C2=O)ncc1C#N [Example 183, (S)-6-(1-(5-(2-amino-5-chloropyridin-4-yl)-7-(2-(ethyl(methyl)amino)ethyl)-1-oxo-3,4-dihydroisoquinolin-2(1H)-yl)ethyl)-4-ethoxynicotinonitrile]
IC50 (WDR5): < 10 nM
AC50 (MV4-11 cells): 10 to 1000 nM
AC50 [1]: 10 to 1000 nM

CCOc1cc([C@H](C)N2CCc3c(cc(CCN(C)CC)cc3-c3cc(C(C)(C)O)ncc3C)C2=O)ncc1C#N [Example 184, (S)-4-ethoxy-6-(1-(7-(2-(ethyl(methyl)amino)ethyl)-5-(2-(2-hydroxypropan-2-yl)-5-methylpyridin-4-yl)-1-oxo-3,4-dihydroisoquinolin-2(1H)-yl)ethyl)nicotinonitrile]
IC50 (WDR5): < 10 nM
AC50 (MV4-11 cells): 10 to 1000 nM
AC50 [1]: 10 to 1000 nM

CCOc1cc([C@H](C)N2CCc3c(cc(CCN(C)CC)cc3-c3cc(C(C)=O)cnc3C)C2=O)ncc1C#N [Example 185, (S)-6-(1-(5-(5-acetyl-2-methylpyridin-3-yl)-7-(2-(ethyl(methyl)amino)ethyl)-1-oxo-3,4-dihydroisoquinolin-2(1H)-yl)ethyl)-4-ethoxynicotinonitrile]
IC50 (WDR5): < 10 nM
AC50 (MV4-11 cells): 10 to 1000 nM
AC50 [1]: 10 to 1000 nM

CCOc1cc([C@H](C)N2CCc3c(cc(CCN(C)CC)cc3-c3cc(C(C)O)cnc3C)C2=O)ncc1C#N (stereo partly drawn) [Example 186, 4-ethoxy-6-((1S)-1-(7-(2-(ethyl(methyl)amino)ethyl)-5-(5-(1-hydroxyethyl)-2-methylpyridin-3-yl)-1-oxo-3,4-dihydroisoquinolin-2(1H)-yl)ethyl)nicotinonitrile]
IC50 (WDR5): < 10 nM
AC50 (MV4-11 cells): 10 to 1000 nM
AC50 [1]: 10 to 1000 nM

CCOc1cc([C@H](C)N2CCc3c(cc(CCN(C)CC)cc3-c3cc(N)cnc3C)C2=O)ncc1C#N [Example 187, (S)-6-(1-(5-(5-amino-2-methylpyridin-3-yl)-7-(2-(ethyl(methyl)amino)ethyl)-1-oxo-3,4-dihydroisoquinolin-2(1H)-yl)ethyl)-4-ethoxynicotinonitrile]
IC50 (WDR5): < 10 nM
AC50 (MV4-11 cells): 10 to 1000 nM
AC50 [1]: 10 to 1000 nM

CCOc1cc([C@H](C)N2CCc3c(cc(CCN(C)CC)cc3-c3cc(OC)ncc3C)C2=O)ncc1C#N [Example 188, (S)-4-ethoxy-6-(1-(7-(2-(ethyl(methyl)amino)ethyl)-5-(2-methoxy-5-methylpyridin-4-yl)-1-oxo-3,4-dihydroisoquinolin-2(1H)-yl)ethyl)nicotinonitrile]
IC50 (WDR5): < 10 nM
AC50 (MV4-11 cells): 10 to 1000 nM
AC50 [1]: 10 to 1000 nM

CCOc1cc(CN2CCc3c(cc(CCN(C)CC)cc3-c3cc(C)nnc3C)C2=O)ncc1C#N [Example 189, 6-((5-(3,6-dimethylpyridazin-4-yl)-7-(2-(ethyl(methyl)amino)ethyl)-1-oxo-3,4-dihydroisoquinolin-2(1H)-yl)methyl)-4-ethoxynicotinonitrile]
IC50 (WDR5): < 10 nM
AC50 (MV4-11 cells): 10 to 1000 nM
AC50 [1]: 10 to 1000 nM
